The source of these data is US12589156B2, “Benzimidazole and benzimidazolone based protac compounds for the targeted degradation of leucine rich repeat kinase 2 (LRRK2)” (Arvinas Operations, Inc., priority 2023, dated 2026).

Broadly, the DC50 is the concentration at which degradation of the target reaches its halfway point. A lower DC50 goes with degradation at low concentration. The Dmax is the greatest extent of degradation seen.

The target of the experiment is T1, WT LRRK2 (Homo sapiens, UniProt Q5S007).
T1 construct: endogenous in cells; host or cells: HEK293 (endogenous LRRK2 gene knock-in tagged with HiBit; stably expressing CMV-driven firefly luciferase)
In words: LRRK2 HiBit degradation assay (Nano-Glo Dual Luciferase) in HEK293 cells with HiBit-tagged endogenous LRRK2. It counts as cell-based. From the text:
Biological Assays Exemplary Assay for Testing LRRK2 Degradation Driven by Exemplary Hetero-Bifunctional Compounds Designed to Target LRRK2
The assay measures the degradation of LRRK2 in cells where the C-terminus (3′) of the endogenous gene has been tagged with a HiBit sequence in HEK293 cells. The cells also express firefly lucisferase, expressed from a Cytomegalovirus promoter and introduced into the HiBit tagged cells and stably expressed. The Nano-Glo® Dual Luciferase Reporter Assay System (Promega™, Madison, WI) was utilized.
Day 1—Preparation of Compound and Assay Plates. Two sets of plates were prepared: a triplicate set for the HiBit assay in white 384-well plates and a triplicate set of plate in black 384-well plates for the Alamar Blue cell viability assay. Briefly, the growth media (DMEM+Glutamax-10% fetal bovine serum-1% Penicillin-Streptomicin) from two T128 flasks was aspirated from the flasks. Cells were washed with Dulbecco's Phosphate Buffered Saline (dPBS) and aspirated. Trypsin (3 mL per flask) was added and the flasks were incubated for 2-3 minutes.
Ten mL of OptiMEM—10% fetal bovine-1% penicillin-streptomycin (hereinafter, “OptiMEM media”) was added to the flask and the cells and transferred to a 50 ml conical tube. A cell count (25 ul of cell into Effendorf vial+25 ul of Trypan Blue Stain) was performed and the cell density adjusted to 15,000 cell/45 μl/well (3.33×10^5/mL) in OptiMEM media.
Forty-five microliters of the cell suspension (15,000 cells) was aliquoted to each well of the white 384-well plate. The plates incubated at room temperature for 10 minutes before being placed in the 37° C.+5% CO2 incubator overnight
Day 2—Compound Treatment. Exemplary compounds were prepared at a 1 mM starting concentration and 1:3 serial dilution for 11 points CRC prepared and stored in the freezer. The Master Compound Plate was thawed overnight at room temperature. DMSO (20 μL) was added into column 24 of the Master Compound Plate for negative control and 20 μL of 300 μM of Compound 4 in column 23 as positive control.
Intermediate Compound Plate with 4% DMSO in OptiMEM Media. DMSO was added to warm OptiMEM media to achieve a 4% DMSO solution (approximately 50 mL/plate). One-hundred microliters of the OptiMEM-4% DMSO was aliquoted to each well of 384-Well Deep Well Microplates.
The Master Compound Plate and the Intermediate Compound Plate were spun down.
One microliter of compound from the Master Compound Plate was transferred into the Intermediate plate (a 1:100 dilution). The diluted mixture was mixed and 5 μL transferred into the assay plate (a 1:10 dilution) for the final starting concentration of 1 μM. The Treated Assay plates were incubated for 24 hours at 37° C.+5% CO2. The Master Compound Plate was sealed and store at room temperature for a second run that was performed within a week.
One set of white assay plates was warmed to room temperature (45 minute).
The One Glo luciferase mixture was prepared. The media from white 384-well assay plates was aspirated. Twenty-five μL of the One Glo luciferase mixture was added to each well of the assay plates. The plates were incubated on the bench (room temperature) for 45 minutes, including 10 minutes of shaking at 700 rpm. The luminescence of each plate was read on a plate reader.
1:100 DLR substrate and 1:100 LgBiT Protein dilution were added to the Promega Stop and Glo buffer and mixed just before addition to assay plates. Twenty-five microliters of Stop and Glo mixture was added to each well. Assay plates incubated for at least 45 minutes, including 10 minutes of shaking at 700 rpm. The luminescence of each plate was read on a plate reader.
Analysis of LRRK2 HiBit Screening assays. As mentioned above, plates were run in triplicate and the assay repeated twice (total of 6 replicate for exemplary compounds). For each treatment, measurements were taken for firefly luciferase for cell number, cell viability (Alamar Blue), and Nanoluc for the LRRK2-HiBit quantification. […]
(With HiBiT, luminescence reflects the tagged protein that the partner subunit can reach.)

Setting [1] is: Table 2, HiBit-tagged LRRK2 in HEK293 cells, 24 hours treatment, starting concentration 1 μM.
The mark [2] stands for this setting: Table 2, maximal degradation, HiBit-tagged LRRK2 in HEK293 cells, 24 hours treatment.
Where [3] appears, read: HEK293, Table 2, maximal degradation, HiBit-tagged LRRK2 in HEK293 cells, 24 hours treatment.
The mark [4] stands for this setting: HEK293, Table 3, comparison with direct comparators, maximal degradation.
Where [5] appears, read: Table 3, comparison with direct comparators, HiBit-tagged LRRK2 in HEK293 cells, 24 hours treatment.

Each structure is given as a SMILES string.

T1 sequence (Q5S007 whole entry): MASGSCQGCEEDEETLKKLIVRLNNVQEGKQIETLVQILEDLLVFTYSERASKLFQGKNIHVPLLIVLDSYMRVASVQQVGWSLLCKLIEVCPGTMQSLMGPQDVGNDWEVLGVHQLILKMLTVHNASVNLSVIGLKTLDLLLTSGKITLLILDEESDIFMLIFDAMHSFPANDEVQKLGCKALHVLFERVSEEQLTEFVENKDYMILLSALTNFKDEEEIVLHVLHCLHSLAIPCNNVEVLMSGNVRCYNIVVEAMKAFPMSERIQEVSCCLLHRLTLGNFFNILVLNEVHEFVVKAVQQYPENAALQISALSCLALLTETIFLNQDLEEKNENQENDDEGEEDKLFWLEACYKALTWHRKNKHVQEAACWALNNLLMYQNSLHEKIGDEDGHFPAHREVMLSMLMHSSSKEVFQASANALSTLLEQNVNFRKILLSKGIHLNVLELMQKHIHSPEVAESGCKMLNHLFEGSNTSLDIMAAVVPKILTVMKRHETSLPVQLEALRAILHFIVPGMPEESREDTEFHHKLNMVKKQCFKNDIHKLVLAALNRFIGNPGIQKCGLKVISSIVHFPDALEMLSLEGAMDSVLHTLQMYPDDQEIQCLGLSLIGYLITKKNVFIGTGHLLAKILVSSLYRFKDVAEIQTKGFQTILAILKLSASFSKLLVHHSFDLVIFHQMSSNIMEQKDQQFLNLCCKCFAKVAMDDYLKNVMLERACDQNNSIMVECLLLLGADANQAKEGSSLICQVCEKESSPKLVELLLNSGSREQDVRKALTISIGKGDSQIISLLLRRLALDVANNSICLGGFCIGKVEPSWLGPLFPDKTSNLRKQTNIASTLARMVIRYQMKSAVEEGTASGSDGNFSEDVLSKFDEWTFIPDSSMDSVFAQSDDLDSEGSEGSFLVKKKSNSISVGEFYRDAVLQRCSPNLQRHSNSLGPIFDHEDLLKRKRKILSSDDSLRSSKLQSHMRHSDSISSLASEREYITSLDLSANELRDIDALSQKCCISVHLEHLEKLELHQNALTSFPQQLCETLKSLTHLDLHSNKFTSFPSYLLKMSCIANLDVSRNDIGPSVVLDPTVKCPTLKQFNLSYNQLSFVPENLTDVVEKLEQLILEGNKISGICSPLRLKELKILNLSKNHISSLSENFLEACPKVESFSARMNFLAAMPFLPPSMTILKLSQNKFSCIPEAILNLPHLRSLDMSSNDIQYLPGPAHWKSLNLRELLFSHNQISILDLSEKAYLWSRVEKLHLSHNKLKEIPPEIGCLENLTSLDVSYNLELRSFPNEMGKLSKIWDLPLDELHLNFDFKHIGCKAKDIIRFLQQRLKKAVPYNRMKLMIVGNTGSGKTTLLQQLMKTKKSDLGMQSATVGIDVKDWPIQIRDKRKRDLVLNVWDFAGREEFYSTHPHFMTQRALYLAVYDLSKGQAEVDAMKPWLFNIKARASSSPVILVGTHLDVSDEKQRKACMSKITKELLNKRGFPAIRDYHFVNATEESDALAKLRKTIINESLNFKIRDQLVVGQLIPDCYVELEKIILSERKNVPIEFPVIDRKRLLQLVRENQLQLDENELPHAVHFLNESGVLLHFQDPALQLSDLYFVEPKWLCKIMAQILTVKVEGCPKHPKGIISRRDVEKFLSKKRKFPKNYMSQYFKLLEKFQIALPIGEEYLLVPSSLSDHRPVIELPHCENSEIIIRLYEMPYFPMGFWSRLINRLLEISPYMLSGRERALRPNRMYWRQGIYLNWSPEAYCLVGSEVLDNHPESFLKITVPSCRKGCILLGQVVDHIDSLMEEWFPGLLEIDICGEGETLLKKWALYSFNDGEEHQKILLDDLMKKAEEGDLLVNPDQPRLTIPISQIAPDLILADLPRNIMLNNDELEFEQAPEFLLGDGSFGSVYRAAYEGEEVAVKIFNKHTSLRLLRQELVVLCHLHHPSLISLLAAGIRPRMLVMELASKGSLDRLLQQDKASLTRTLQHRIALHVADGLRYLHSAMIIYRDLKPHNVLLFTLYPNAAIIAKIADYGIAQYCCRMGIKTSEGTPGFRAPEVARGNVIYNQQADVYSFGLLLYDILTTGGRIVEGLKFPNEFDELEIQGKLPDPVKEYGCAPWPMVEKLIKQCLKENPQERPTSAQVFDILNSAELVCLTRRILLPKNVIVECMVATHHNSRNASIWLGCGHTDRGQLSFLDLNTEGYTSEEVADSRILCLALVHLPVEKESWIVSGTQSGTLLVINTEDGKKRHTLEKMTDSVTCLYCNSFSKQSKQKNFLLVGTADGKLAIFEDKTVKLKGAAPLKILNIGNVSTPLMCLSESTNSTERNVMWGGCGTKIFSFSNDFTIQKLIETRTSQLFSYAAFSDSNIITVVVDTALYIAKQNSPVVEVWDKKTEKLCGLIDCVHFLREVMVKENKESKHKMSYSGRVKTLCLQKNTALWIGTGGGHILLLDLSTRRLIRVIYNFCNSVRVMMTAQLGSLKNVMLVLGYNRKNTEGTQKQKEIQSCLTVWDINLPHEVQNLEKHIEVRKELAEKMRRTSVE

With `CC1(Oc2ccc3[nH]nc(-c4cc(N5CCN(CC6CCC(OC7CCN(c8ccc9ncn(C%10CCC(=O)NC%10=O)c9c8)CC7)CC6)CC5)ncn4)c3c2)CC1` (centres unmarked) [Compound 4, 3-[6-(4-{[(1r,4r)-4-[(4-{6-[5-(1-methylcyclopropoxy)-1H-indazol-3-yl]pyrimidin-4-yl}piperazin-1-yl)methyl]cyclohexyl]oxy}piperidin-1-yl)-1H-1,3-benzodiazol-1-yl]piperidine-2,6-dione], the DC50 under setting [1] turned out to be 7.5 nM. In addition, the “WT LRRK2 **Dmax (%)” value under setting [2] is reported as 62%.

Under setting [1], `Cn1c(=O)n(C2CCC(=O)NC2=O)c2ccc(C3CCN([C@H]4C[C@H](OC5CCN(c6cc(-c7n[nH]c8ccc(OC9(C)CC9)cc78)ncn6)CC5)C4)CC3)cc21` (single isomer, unassigned) [Compound 37, rel-3-(3-methyl-2-oxo-5-{1-[(1r,3r)-3-[(1-{6-[5-(1-methylcyclopropoxy)-1H-indazol-3-yl]pyrimidin-4-yl}piperidin-4-yl)oxy]cyclobutyl]piperidin-4-yl}-2,3-dihydro-1H-1,3-benzodiazol-1-yl)piperidine-2,6-dione] returned a DC50 of 0.053 nM. Under setting [2], this compound came in with a Dmax of 64%.

In the case of `CC(C)Oc1ccc2[nH]nc(-c3cc(N4CCN(C[C@H]5CC[C@H](OC6CCN(c7ccc8c(c7)n(C(C)C)c(=O)n8C7CCC(=O)NC7=O)CC6)CC5)CC4)ncn3)c2c1` (single isomer, unassigned) [Compound 57, rel-3-[2-oxo-3-(propan-2-yl)-5-(4-{[(1r,4r)-4-[(4-{6-[5-(propan-2-yloxy)-1H-indazol-3-yl]pyrimidin-4-yl}piperazin-1-yl)methyl]cyclohexyl]oxy}piperidin-1-yl)-2,3-dihydro-1H-1,3-benzodiazol-1-yl]piperidine-2,6-dione], the Dmax under setting [3] stood at 51%. The DC50 under setting [1] was determined as 0.64 nM.

Regarding `CC1(Oc2ccc3[nH]nc(-c4cc(N5CCC(CN6CCN(CC7CCN(c8cc9ncn(C%10CCC(=O)NC%10=O)c9cc8F)CC7)CC6(C)C)CC5)ncn4)c3c2)CC1` (centres unmarked) [Compound 40, 3-{5-[4-({3,3-dimethyl-4-[(1-{6-[5-(1-methylcyclopropoxy)-1H-indazol-3-yl]pyrimidin-4-yl}piperidin-4-yl)methyl]piperazin-1-yl}methyl)piperidin-1-yl]-6-fluoro-1H-1,3-benzodiazol-1-yl}piperidine-2,6-dione], the Dmax is, setting by setting: under setting [3], 59%; under setting [4], 59%. Further, the DC50 was found to be 4.2 nM under setting [1] and 4.2 nM under setting [5].

Compound `COc1ccc2[nH]nc(-c3cc(N4CCN(C[C@H]5CC[C@H](OC6CCN(c7ccc8c(c7)n(C)c(=O)n8C7CCC(=O)NC7=O)CC6)CC5)CC4)ncn3)c2c1` (single isomer, unassigned) [Compound 60, rel-3-[3-methyl-2-oxo-5-(4-{[(1r,4r)-4-({4-[6-(5-methoxy-1H-indazol-3-yl)pyrimidin-4-yl]piperazin-1-yl}methyl)cyclohexyl]oxy}piperidin-1-yl)-2,3-dihydro-1H-1,3-benzodiazol-1-yl]piperidine-2,6-dione] came in with a Dmax under setting [3] of 38%. The compound also yielded a DC50 under setting [1] of 0.67 nM.

Compound `CC1(Oc2ccc3[nH]nc(-c4cc(N5CCN(C[C@H]6CC[C@H](OC7CCN(c8cccc9c8ncn9C8CCC(=O)NC8=O)CC7)CC6)CC5)ncn4)c3c2)CC1` (some centres unmarked) [Compound 3, 3-[4-(4-{[(1r,4r)-4-[(4-{6-[5-(1-methylcyclopropoxy)-1H-indazol-3-yl]pyrimidin-4-yl}piperazin-1-yl)methyl]cyclohexyl]oxy}piperidin-1-yl)-1H-1,3-benzodiazol-1-yl]piperidine-2,6-dione] displayed a Dmax under setting [3] of 30% and a Dmax under setting [4] of 30%. Further, the 50% degradation concentration (DC50) was determined as 28 nM under setting [1] and 28 nM under setting [5].

Take `CC1(Oc2ccc3[nH]nc(-c4cc(N5CCC(CN6CCN(CC7CCN(c8cccc9c8ncn9C8CCC(=O)NC8=O)CC7)CC6)CC5)ncn4)c3c2)CC1` (centres unmarked) [Compound 70, 3-{4-[4-({4-[(1-{6-[5-(1-methylcyclopropoxy)-1H-indazol-3-yl]pyrimidin-4-yl}piperidin-4-yl)methyl]piperazin-1-yl}methyl)piperidin-1-yl]-1H-1,3-benzodiazol-1-yl}piperidine-2,6-dione]: the greatest degradation seen (Dmax) is, setting by setting: under setting [3], 33%; under setting [4], 33%. For the same compound, the DC50 came to 20 nM under setting [1] and 20 nM under setting [5].

For `CC1(Oc2ccc3[nH]nc(-c4cc(N5CCC(CN6CCN(CC7CCN(c8ccc9c(ncn9C9CCC(=O)NC9=O)c8F)CC7)CC6(C)C)CC5)ncn4)c3c2)CC1` (centres unmarked) [Compound 41, 3-{5-[4-({3,3-dimethyl-4-[(1-{6-[5-(1-methylcyclopropoxy)-1H-indazol-3-yl]pyrimidin-4-yl}piperidin-4-yl)methyl]piperazin-1-yl}methyl)piperidin-1-yl]-4-fluoro-1H-1,3-benzodiazol-1-yl}piperidine-2,6-dione], the Dmax stood at 49% under setting [3] and 49% under setting [4]. Besides, the DC50 is 3.7 nM under setting [1] and 3.7 nM under setting [5].

Under setting [3], `Cn1c(=O)n(C2CCC(=O)NC2=O)c2ccc(N3CCC(O[C@H]4CC[C@H](CN5CCN(c6cc(-c7n[nH]c8cnc(C9(C#N)CCC9)cc78)ncn6)CC5)CC4)CC3)cc21` (single isomer, unassigned) [Compound 22, rel-1-{3-[6-(4-{[(1r,4r)-4-({1-[1-(2,6-dioxopiperidin-3-yl)-3-methyl-2-oxo-2,3-dihydro-1H-1,3-benzodiazol-5-yl]piperidin-4-yl}oxy)cyclohexyl]methyl}piperazin-1-yl)pyrimidin-4-yl]-1H-pyrazolo[3,4-c]pyridin-5-yl}cyclobutane-1-carbonitrile] came in with a Dmax of 46%. The same compound gave a DC50 under setting [1] of 0.14 nM.

`CC(C)n1c(=O)n(C2CCC(=O)NC2=O)c2ccc(N3CCC(CN4CCN(CC5CCN(c6cc(-c7n[nH]c8ccc(OC9(C)CC9)cc78)ncn6)CC5)C(C)(C)C4)CC3)cc21` (centres unmarked) [Compound 2, 3-{5-[4-({3,3-dimethyl-4-[(1-{6-[5-(1-methylcyclopropoxy)-1H-indazol-3-yl]pyrimidin-4-yl}piperidin-4-yl)methyl]piperazin-1-yl}methyl)piperidin-1-yl]-2-oxo-3-(propan-2-yl)-2,3-dihydro-1H-1,3-benzodiazol-1-yl}piperidine-2,6-dione] yielded a maximal degradation (Dmax) under setting [3] of 55%. Further, under setting [1], the half-maximal degradation concentration (DC50) amounted to 0.18 nM.

In the case of `CC1(Oc2ccc3[nH]nc(-c4cc(N5CCN(C[C@H]6CC[C@H](OC7CCN(c8ccc9c(ncn9C9CCC(=O)NC9=O)c8F)CC7)CC6)CC5)ncn4)c3c2)CC1` (stereo partly drawn) [Compound 45, rel-3-[4-fluoro-5-(4-{[(1r,4r)-4-[(4-{6-[5-(1-methylcyclopropoxy)-1H-indazol-3-yl]pyrimidin-4-yl}piperazin-1-yl)methyl]cyclohexyl]oxy}piperidin-1-yl)-1H-1,3-benzodiazol-1-yl]piperidine-2,6-dione], the Dmax reads like this: under setting [3], 56%; under setting [4], 56%. Further, the half-maximal degradation concentration (DC50) is, setting by setting: under setting [1], 3.9 nM; under setting [5], 3.9 nM.
